From US7101681B1, “Nuclear hormone receptor drug screens” (Amgen, Inc., priority 1997, dated 2006)

Assays:
RXR = assay: Fluorescent polarization assay, labeled peptide sensor binding to RXR; details: for Sensors Activity: Fluorescent Polarization Assay RXR: graded symbols O, I to IV, key not given
Procedure: (§1) I. High-Throughput In Vitro Fluorescence Polarization Assay
(§2) • Sensor: Rhodamine-labeled L1X1X2L2L3 peptide (final conc.=1–5 nM) • Receptor: Glutathione-S-transferase/nuclear hormone receptor ligand binding domain fusion protein (final conc.=100–200 nM) • Buffer: 10 mM HEPES, 10 mM NaCl, 6 mM magnesium chloride, pH 7.6 Protocol: • 1. Add 90 microliters of peptide/NHR mixture to each well of a 96-well microtiter plate. • 2. Add 10 microliters of test compound per well. • 3. Shake 5 min and within 5 minutes determine amount of fluorescence polarization by using a Fluorolite FPM-2 Fluorescence Polarization Microtiter System (Dynatech Laboratories, Inc). II. Conformational Sensor—ELISA Format Assay Buffer and Solution Preparation: […]

LXR = assay: Fluorescent polarization assay, labeled peptide sensor binding to LXR; details: for Sensors Activity: Fluorescent Polarization Assay LXR: graded symbols O, I to IV, key not given
Procedure: as §1, §2

PPARγ = molecular target: T1, PPARγ (Homo sapiens, UniProt P37231); assay: Fluorescent polarization assay, labeled peptide sensor binding to PPARγ; details: graded symbols O, I to IV, key not given
T1 sequence (P37231 238-503 limits assumed): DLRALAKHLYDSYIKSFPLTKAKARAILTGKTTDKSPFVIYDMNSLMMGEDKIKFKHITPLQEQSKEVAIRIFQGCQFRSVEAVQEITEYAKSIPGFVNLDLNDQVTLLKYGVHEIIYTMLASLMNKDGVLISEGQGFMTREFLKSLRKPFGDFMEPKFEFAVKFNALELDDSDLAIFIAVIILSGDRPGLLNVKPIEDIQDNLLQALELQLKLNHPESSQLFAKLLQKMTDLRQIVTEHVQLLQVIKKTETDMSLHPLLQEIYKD
Procedure: as §1, §2

| Compound | Sensors Activity: Fluorescent Polarization Assay RXR (RXR) | Sensors Activity: Fluorescent Polarization Assay LXR (LXR) | also measured |
| --- | --- | --- | --- |
| TUK-1385: labeled peptide sensor R-KLVQLLTTT, SRC-1 632–640 | II+ | II+ | – |
| TUK-1391: labeled peptide sensor R-LLRYLLDK, SRC-1 748–755 | – | – | Sensors Activity: Fluorescent Polarization Assay PPARγ (PPARγ): II+ |
| 9-cis-retinoic acid [reference compound] | – | – | RXR receptor affinity for labeled peptide sensor (RXR; ligand at 1 μM, dose response, FIG. 3): increases |
| TUK-1453: labeled peptide sensor R-LLRYLLD (SEQ ID NO:4), SRC-1 748–754 (R label) | I+ | – | – |
| TUK-1381: labeled peptide sensor R-LLQQLLTE, SRC-1 1434–1441 | I+ | – | Sensors Activity: Fluorescent Polarization Assay PPARγ (PPARγ): I+ |
| TUK-1455: labeled peptide sensor R-LRYLLD (SEQ ID NO:5), SRC-1 749–754 (R label) | – | – | Sensors Activity: Fluorescent Polarization Assay PPARγ (PPARγ): I+ |
| CC(C)C(=O)CC[C@@H](C)[C@H]1CC[C@H]2[C@@H]3CC=C4C[C@@H](O)CC[C@]4(C)[C@H]3CC[C@]12C [24-ketocholesterol, reference compound] | – | – | LXR receptor affinity for labeled peptide sensor (LXR; ligand at 2 μM, dose response, FIG. 2): increases |
| TUK-1380: labeled peptide sensor F-LLQQLLTE (SEQ ID NO:12), SRC-1 1434–1441 (fluorescent label) | – | II+ | – |
| TUK-1371: labeled peptide sensor R-ILHRLLQE, SRC-1 689–696 | – | – | Sensors Activity: Fluorescent Polarization Assay PPARγ (PPARγ): I+ |

The next lines start with results.

| Sensors Activity: Fluorescent Polarization Assay RXR (RXR) | Sensors Activity: Fluorescent Polarization Assay LXR (LXR) | Compound | also measured |
| --- | --- | --- | --- |
| II+ | – | TUK-1390: labeled peptide sensor F-LLRYLLDK (SEQ ID NO:3), SRC-1 748–755 (fluorescent label) | – |
| II+ | – | TUK-1373: labeled peptide sensor R-G-ILHRLLQE, SRC-1 689–696 | – |
| – | II+ | TUK-1376: labeled peptide sensor F-G-VTLLQLLLG, RIP-140 496–506 | – |
| II+ | III+ | TUK-1393: labeled peptide sensor R-G-LLRYLLDK, SRC-1 748–755 | – |
| I+ | – | TUK-1473: labeled peptide sensor R-QLLRYLLDKD (SEQ ID NO:9), SRC-1 747–756 (label R) | Sensors Activity: Fluorescent Polarization Assay PPARγ (PPARγ): I+ |
| – | II+ | TUK-1382: labeled peptide sensor F-G-LLQQLLTE, SRC-1 1434–1441 | – |
| – | II+ | TUK-1392: labeled peptide sensor F-G-LLRYLLDK, SRC-1 748–755 | – |
| – | III+ | TUK-1557: labeled peptide sensor R-ILKKLLQE (SEQ ID NO:17), synthetic sequence peptide (label R) | – |
